Laboratory results as given in DBAASP.
Converted amounts (≈) assume the structure as drawn. “And” between values parts separate entries of the source, which are not always exact repeats. Equal entries are not always repeated. Blank lines part the entries; values can stand above or below the compound they belong to.

Legend:
Test in all cases: ≥ marks a high value that may be exact or a test limit, other limits are often not marked, values filed in µg/mL are converted to µM
[1] = test system: Escherichia coli ATCC 25922
[2] = test system: Escherichia coli ATCC 54127
[3] = test system: Escherichia coli NCTC 10418
[4] = test system: Pseudomonas aeruginosa ATCC 27853
[5] = test system: Pseudomonas aeruginosa CIP A22
[6] = test system: Staphylococcus aureus ATCC 25923
[7] = test system: Staphylococcus aureus NCTC 10788
[8] = test system: Acinetobacter baumannii ATCC 19606
[9] = test system: Bacillus anthracis Sterne 34F2
[10] = test system: Haemophilus influenzae ATCC 49247
[11] = test system: Klebsiella pneumoniae NCTC 9633
[12] = test system: Mycobacterium tuberculosis H37Ra
[13] = test system: Pseudomonas aeruginosa 253
[14] = test system: Pseudomonas aeruginosa 910
[15] = test system: Pseudomonas aeruginosa 919
[16] = test system: Staphylococcus aureus NRS 72
[17] = test system: Staphylococcus aureus USA 300
[18] = test system: Acinetobacter baumannii AB1
[19] = test system: Acinetobacter baumannii AB2
[20] = test system: Acinetobacter baumannii AB3
Acinetobacter baumannii = test system: Acinetobacter baumannii
[21] = test system: Klebsiella pneumoniae KP1
[22] = test system: Klebsiella pneumoniae KP2
[23] = test system: Klebsiella pneumoniae KP3
[24] = test system: Klebsiella pneumoniae KP4
[25] = test system: Pseudomonas aeruginosa TRPA 108
[26] = test system: Pseudomonas aeruginosa TRPA 111
Pseudomonas aeruginosa = test system: Pseudomonas aeruginosa
[27] = test system: Staphylococcus aureus 4003
[28] = test system: Staphylococcus aureus ATCC 43300
[29] = test system: Staphylococcus aureus ATCC 6538
[30] = test system: Staphylococcus aureus ATCC BAA-44
[31] = test system: Staphylococcus aureus NRS 1
[32] = test system: Staphylococcus aureus NRS 846
[33] = test system: Staphylococcus aureus RN4220
[34] = test system: Staphylococcus aureus USA 100
[35] = test system: Staphylococcus aureus USA 400
[36] = test system: Staphylococcus aureus VRSA4
[37] = test system: Staphylococcus epidermidis NRS 101
Escherichia coli = test system: Escherichia coli
[38] = test system: Mycobacterium tuberculosis CAS3
[39] = test system: Mycobacterium tuberculosis FYX
[40] = test system: Mycobacterium tuberculosis H37Rv
[41] = test system: Mycobacterium tuberculosis WXY
[42] = test system: Pseudomonas aeruginosa H103
[43] = test system: Pseudomonas aeruginosa PAO1
[44] = test system: Salmonella enterica serovar Typhimurium
Staphylococcus aureus = test system: Staphylococcus aureus

MIC [1]: 5 µM (≈ 15 µg/mL)
MIC [2]: 2.3 µM (≈ 6.89 µg/mL)
MIC [3]: 5 µM (≈ 15 µg/mL)
MIC [4]: 11.6 µM (≈ 34.8 µg/mL)
MIC [5]: 4.6 µM (≈ 13.8 µg/mL)
MIC [6]: 3 µM (≈ 8.99 µg/mL)
MIC [7]: 3 µM (≈ 8.99 µg/mL)
SMILES: CC[C@H](C)[C@H](NC(=O)[C@H](CC(=O)O)NC(=O)[C@H](CCCCN)NC(=O)[C@H](Cc1c[nH]c2ccccc12)NC(=O)[C@H](CC(C)C)NC(=O)[C@H](C)N)C(=O)N[C@@H](CC(C)C)C(=O)N[C@@H](CCCCN)C(=O)N[C@@H](CC(N)=O)C(=O)N[C@H](C(=O)NCC(=O)N[C@@H](CCCCN)C(=O)N[C@@H](C)C(=O)N[C@@H](C)C(=O)NCC(=O)N[C@@H](CCCCN)C(=O)N[C@@H](C)C(=O)N[C@H](C(=O)N[C@@H](CC(C)C)C(=O)N[C@@H](CC(N)=O)C(=O)N[C@H](C(=O)N[C@H](C(=O)N[C@H](C(=O)N[C@@H](CC(=O)O)C(=O)N[C@@H](CCSC)C(=O)N[C@H](C(=O)N[C@@H](CC(N)=O)C(=O)N[C@@H](CCC(N)=O)C(N)=O)C(C)C)[C@@H](C)O)C(C)C)[C@@H](C)O)C(C)C)C(C)C [ALWKDILKNVGKAAGKAVLNTVTDMVNQ]

SMILES: CC(C)[C@H](NC(=O)[C@H](Cc1c[nH]c2ccccc12)NC(=O)[C@H](CCCN=C(N)N)NC(=O)[C@H](Cc1c[nH]c2ccccc12)NC(=O)[C@H](Cc1c[nH]c2ccccc12)NC(=O)[C@H](CCCN=C(N)N)NC(=O)[C@@H](N)CCCN=C(N)N)C(=O)N[C@H](C(=O)N[C@@H](Cc1c[nH]c2ccccc12)C(N)=O)C(C)C [RRWWRWVVW]
MIC [8]: 10 µM (≈ 14.3 µg/mL)
MIC [9]: 20 µM (≈ 28.6 µg/mL)
MIC [10]: ≥ 40 µM
MIC [11]: 2.5 µM (≈ 3.57 µg/mL)
MIC [12]: 20 µM (≈ 28.6 µg/mL)
MIC [13]: 8 µM (≈ 11.4 µg/mL)
MIC [14]: 8 µM (≈ 11.4 µg/mL)
MIC [15]: 2 µM (≈ 2.86 µg/mL)
MIC [16]: 20 µM (≈ 28.6 µg/mL)
MIC [17]: 20 µM (≈ 28.6 µg/mL)

MIC [18]: 2.41 µM (≈ 5 µg/mL)
MIC [19]: 1.45 µM (≈ 3 µg/mL)
MIC [20]: 5.31 µM (≈ 11 µg/mL)
MIC (Acinetobacter baumannii): 2.7 µM (≈ 5.6 µg/mL)
MIC [21]: 13 µM (≈ 27 µg/mL)
MIC [22]: 15.4 µM (≈ 32 µg/mL)
MIC [23]: 15.4 µM (≈ 32 µg/mL)
MIC [24]: 15.4 µM (≈ 32 µg/mL)
MIC [25]: 1.93 µM (≈ 4 µg/mL)
MIC [26]: 1.45 µM (≈ 3 µg/mL)
MIC (Pseudomonas aeruginosa): 3.3 µM (≈ 6.84 µg/mL)
MIC [27]: 1.45 µM (≈ 3 µg/mL)
MIC [28]: 2 µM (≈ 4.14 µg/mL)
MIC [29]: 4 µM (≈ 8.29 µg/mL)
MIC [30]: 4 µM (≈ 8.29 µg/mL)
MIC [31]: 1 µM (≈ 2.07 µg/mL)
MIC [32]: 16 µM (≈ 33.2 µg/mL)
MIC [33]: 2 µM (≈ 4.14 µg/mL)
MIC [34]: 3.38 µM (≈ 7 µg/mL)
MIC [35]: 2 µM (≈ 4.14 µg/mL)
MIC [36]: 5.66 µM (≈ 11.7 µg/mL)
MIC [37]: 4 µM (≈ 8.29 µg/mL)
SMILES: NC(N)=NCCC[C@H](NC(=O)[C@H](CCCN=C(N)N)NC(=O)[C@H](Cc1c[nH]c2ccccc12)NC(=O)[C@H](Cc1c[nH]c2ccccc12)NC(=O)[C@H](CCCN=C(N)N)NC(=O)[C@H](CCCN=C(N)N)NC(=O)[C@H](Cc1c[nH]c2ccccc12)NC(=O)[C@H](Cc1c[nH]c2ccccc12)NC(=O)[C@H](CCCN=C(N)N)NC(=O)[C@H](Cc1c[nH]c2ccccc12)NC(=O)[C@H](Cc1c[nH]c2ccccc12)NC(=O)[C@@H](N)CCCN=C(N)N)C(=O)O [RWWRWWRRWWRR]

MIC (Acinetobacter baumannii): ≥ 45.9 µM
MIC [1]: 23 µM (≈ 32 µg/mL)
MIC (Escherichia coli): 64.9 µM (≈ 90.4 µg/mL)
MIC [38]: ≥ 53.8 µM
MIC [39]: 26.9 µM (≈ 37.5 µg/mL)
MIC [40]: 21 µM and 26.9 µM
MIC [41]: 13.5 µM (≈ 18.7 µg/mL)
MIC [42]: ≥ 53.8 µM
MIC [43]: 91.8 µM (≈ 128 µg/mL)
MIC (Pseudomonas aeruginosa): 64.9 µM (≈ 90.4 µg/mL)
MIC [44]: 23 µM (≈ 32 µg/mL)
MIC [6]: 27.3 µM and 45.9 µM
MIC (Staphylococcus aureus): 64.9 µM (≈ 90.4 µg/mL)
SMILES: CC[C@H](C)[C@H](NC(=O)[C@H](CCCN=C(N)N)NC(=O)[C@H](CC(C)C)NC(=O)[C@H](CCC(N)=O)NC(=O)[C@@H](N)C(C)C)C(=O)N[C@@H](CCCN=C(N)N)C(=O)N[C@H](C(=O)N[C@@H](C)C(=O)N[C@H](C(=O)N[C@H](C(=O)N[C@@H](CCCN=C(N)N)C(=O)N[C@@H](C)C(N)=O)[C@@H](C)CC)C(C)C)C(C)C [VQLRIRVAVIRA]
